Residues, ends and D or L forms follow the SMILES beside them. *: point of attachment. Cbz = O=C(OCc1ccccc1)*
Columns and labels:
Assay type in all cases: in vivo, mouse
[1] = system: 8-10-week C57BL/6 male mice; assay: Intranasal RU486 or Claramine for 10 consecutive days in 8-10-week C57BL/6 male mice; settings: RU486 1, 5, 10 or Claramine 1, 10 and 20 μg/animal/day
Procedure: 8-10-week C57BL/6 male mice were mice received glucocorticoid antagonist (RU486: 1, 5, 10 μg/animal/day; intranasal; 12 μl total volume) and/or PTP1B inhibitor (Claramine: 1, 10 and 20 μg/animal/day, intranasal; 12 μl total volume) for 10 consecutive days and effects on a, f) body weight, b, g) food intake, c, h) adiposity (EchoMRI and fad pad weight) was determined.

diet-induced obese mice [2] = assay: Behavioral satiety sequence after ICV Claramine in overnight fasted high fat fed mice; settings: ICV 1 and 10 μg/animal
Procedure: (§1) FIG. 23. CNS administration of PTP1B inhibitor (Claramine) dose dependently attenuates body weight, adiposity and food intake without regulating energy expenditure in diet-induced obese mice. […] Data were collected into 5 min time bins and are presented as percentage of total behavior. Crossover graphs indicating the point of transition from eating to resting and the dashed line represents the time bin in which groups spent an equivalent amount of time eating and resting and is represented as f) time of cross over.

diet-induced obese mice [3] = assay: ICV Claramine for 10 consecutive days in 12-week high fat fed mice; settings: ICV 1 and 10 μg/animal/day
Procedure: as §1

[4] = system: hypothalamic TCPTP (Ptpn2) expression; assay: ICV ghrelin, UDP or dexamethasone (plus or minus RU486) in re-fed mice; hypothalamic TCPTP immunohistochemistry and Ptpn2 real time PCR; settings: for TCPTP protein levels (immunohistochemistry): ICV twice over 4 h in fasted and re-fed (4 h) mice
diet-induced obese mice [5] = assay: ICV RU486 for 10 consecutive days in 12-week high fat fed mice; settings: ICV 1 μg/animal
Procedure: FIG. 16. […] 12 week high fat fed C57BL/6 male mice were mice were sham or bi-laterally denervated (6-ODHA) to prevent WAT browning and then administered the glucocorticoid antagonist RU486 intracerebroventricularly (ICV; 1 μg/animal), twice daily (9 am & […]) for 10 consecutive days. Effects on body weight and adiposity (EchoMRI and fad pad weight) were determined. WAT browning was assessed by gross morphology.
FIG. 17. A glucocorticoid antagonist promotes WAT browning and increases energy expenditure without any obvious adverse behavioral effects. […] Effects on energy expenditure (indirect calorimetry) and stereotypical behaviors were determined using the Promethion metabolic cage system.
FIG. 22. […] 12-week high fat fed C57BL/6 male mice received glucocorticoid antagonist (RU486: 0.1, 1 and 2 μg/animal/day, ICV) for 10 consecutive days and a) body weights, b) food intake, c) adiposity (EchoMRI and fad pad weight), d) energy expenditure were determined.
Insulin and glucose tolerance tests and blood glucose and plasma insulin were measured as described previously (Dodd et al., 2015 as above; Loh et al., 2009 Cell Metab 10, 260-272). Plasma corticosterone was measured by ELISA (Arbor Assays). […]
Effects on body weight and adiposity (EchoMRI and fat pad weight) were determined. […]
Effects on energy expenditure and stereotypical behaviours were determined using the Promethion metabolic cages system.

[6] = system: AgRP neurons (hM4Di DREADD); assay: CNO in Agrp-Ires-Cre; Npy-hrGFP mice with rAAV-hM4Di-mCherry (DREADD) in the ARC; settings: CNO 1.5 mg/kg/day i.p., 14 days
Source text: FIG. 3. TCPTP deletion in AgRP neurons or AgRP neuronal inhibition promotes WAT browning and energy expenditure. a) Body weights, b) body composition, c) energy expenditure, d) daily food intake and e) BAT Ucp-1 gene expression in 18-week-old AgRP-TC and Ptpn2^fl/fl male mice. Inguinal WAT (ingWAT) was extracted from Ptpn2^fl/fl and AgRP-TC male mice and processed for f) histology (hematoxylin and eosin: H&E) and immunohistochemistry, g) quantitative PCR and h) immunoblotting. i) Ptpn2^fl/fl and AgRP-TC and Ptpn2^fl/fl male mice were subjected to ^18F-fluoro-2-deoxy-D-glucose (^18F-FDG) positron emission tomography (PET)-computed tomography (CT). Representative images and ingWAT ^18F-FDG standard uptake values (SUV) and normalised uptake per tissue volume are shown. Ptpn2^fl/fl and AgRP-TC male mice ingWAT depots were bilaterally sham-operated or denervated with 6-ODHA and j) weekly body weights recorded and k) energy expenditure measured. l) Ptpn2^fl/fl, AgRP-TC or AgRP-TC-IR male mice were fasted overnight and administered (intraperitoneal) insulin (0.85 mU/g, 15 min) and brains extracted for ARC p-AKT immunohistochemistry. m) Energy expenditure, n) body weights and o) ingWAT weights in 14-week-old Ptpn2^fl/fl, AgRP-TC or AgRP-TC-IR male mice. p-r) IngWAT and BAT were extracted from Ptpn2^fl/fl, AgRP-TC or AgRP-TC-IR male mice for gene expression analyses or histology/immunohistochemistry. s-t) 10-week-old Npy-hrGFP; Agrp-Ires-Cre mice were bilaterally injected with rAAV-hM4Di-mCherry into the ARC. […] Representative and quantified results (means±SEM) are shown for the indicated number of mice. * for significance between Ptpn2^fl/fl and AgRP-TC mice; # for significance between treated AgRP-TC or AgRP verses AgRP-TC-IR mice.
FIG. 10. […] Representative and quantified results (means±SEM) are shown for the indicated number of mice. […]

TCPTP protein in the MBH = assay: ICV MG132 in fasted (24 h) mice re-fed 4 h; MBH immunoblotting for TCPTP; settings: ICV 2 μl 50 μM, 4 h re-feeding
Procedure: The alterations in hypothalamic TCPTP in fed and fasted mice might be a specific response to nutritional signals. To explore this, experiments were performed to determined when the hypothalamic TCPTP levels returned to the pre-fasted state, when 24 h fasted mice were re-fed for 4 h (FIG. 1a). Hypothalamic TCPTP protein, as assessed by immunoblotting MBH homogenates (FIG. 1c), or Ptpn2 expression, as assessed by real time PCR (FIG. 1d), declined to pre-fasted levels in re-fed mice. The decline in TCPTP occurred throughout the ARC (FIG. 8c). The decline in TCPTP was accompanied by increased IR and AKT phosphorylation (FIG. 1e), consistent with the potential enhancement of insulin sensitivity. Since the half-life for TCPTP protein is roughly 16 h (Bukczynska et al., 2004), we reasoned that the decline in TCPTP might reflect increased degradation. The proteasome can influence hypothalamic protein abundance in response to feeding (Sasaki et al., 2010). To test its contribution to TCPTP degradation in re-fed mice, we administered fasted (24 h) mice the proteasome inhibitor MG132 intracerebroventricularly (ICV) and assessed the influence on TCPTP protein in the MBH after 4 h of re-feeding.

PTP1B levels = assay: ICV MG132 in fasted (24 h) mice re-fed 4 h; MBH immunoblotting for PTP1B; settings: ICV 2 μl 50 μM, 4 h re-feeding
[7] = system: 20-week high fat fed C57BL/6 male mice; assay: Intra-ARC infusion of TCPTP inhibitor in 20-week high fat fed mice switched to chow diet; settings: intra-ARC 0.5 nmol/day at 0.25 ul/h, mice placed on chow diet (9% fat)
Procedure: FIG. 18. […] 2-weeks post AAV injection mice were placed on chow diet (9% fat) and weekly body weight was monitored. b) 20-week high fat fed (23% fat) C57BL/6 male mice were implanted with bilateral intraARC cannula connected to Alzet osmotic minipumps (Alzet, 1002) and infused with vehicle or TCPTP inhibitor (compound 8 as described herein, 0.5 nmol/day at a rate of 0.25 ul/h). Mice were placed on chow diet (9% fat) and daily body weight was monitored.
2-weeks post AAV injection mice were placed on chow diet (9% fat) and weekly body weight was monitored. b) 20-week high fat fed (23% fat) C57BL/6 male mice were implanted with bilateral intra-ARC cannula connected to Alzet osmotic minipumps (Alzet, 1002) and infused with vehicle or TCPTP inhibitor (compound 8, 0.5 nmol/day at a rate of 0.25 ul/h). Mice were placed on chow diet (9% fat) and daily body weight was monitored.

[8] = system: ARC PI3K/AKT signaling (p-AKT); assay: Insulin-induced ARC p-AKT (Ser-473) immunohistochemistry in fed or fasted mice; settings: insulin 0.85 mU/g i.p., 15 min
Procedure: 4 weeks post rAAV injection mice were administered (intraperitoneal) saline or insulin (0.85 mU/g, 15 min) and paraformaldehyde-fixed brains extracted for ARC p-AKT or GFP (insert) immunohistochemistry. d) Fed or fasted Ptpn2^fl/fl or AgRP-TC male mice were administered (intraperitoneal) saline or insulin (0.85 mU/g, 15 min) and paraformaldehyde-fixed brains extracted for ARC p-AKT immunohistochemistry. e) Fed or fasted Ptpn2^fl/fl versus AgRP-TC male mice on the Npy-hrGFP reporter background processed for c-Fos ARC immunohistochemistry. f) Whole-cell patch clamp recordings of hypothalamic NPY neurons from Ptpn2^fl/fl; Npy-hrGFP versus AgRP-TC; Npy-hrGFP male mice in response to insulin. […] Representative and quantified results (means±SEM) are shown for the indicated number of mice.
Mice were injected intraperitoneally with either vehicle, leptin (0.5-1.0 μg/g; Peprotech, Rehovot, Israel) for p-STAT-3 (Y705) or human insulin (0.85 mU/g, SIGMA, St Louis, Mo.) for p-AKT (Ser-473). Mice were transcardically perfused either 15 min (for p-AKT staining) or 45 min (for p-STAT3 staining) post-injection with a solution of 4% w/v (for p-AKT staining) paraformaldehyde. The brains were post-fixed overnight and then kept for two days in 30% (w/v) sucrose in 0.1 M phosphate buffer to cryoprotect the tissue, before freezing on dry ice. […]

In the case of `CC(C)CCC[C@@H](C)[C@H]1CC[C@H]2[C@@H]3C[C@@H](NCCCNCCCCNCCCN)C4C[C@@H](O)CC[C@]4(C)[C@H]3CC[C@]12C` (stereo partly drawn) [Claramine, (3β3,6β3)-6-[[3-[[4-[(3-Aminopropyl)amino]butyl]amino]propyl]amino]-cholestan-3-ol], the adaptive thermogenesis [1] is reported as “dose dependent effect”, the adiposity [1] is reported as “dose dependent effect” and the body weight [1] is reported as “dose dependent effect”. For the same compound, the food intake [1] was “dose dependent effect”, the “adverse side effects as cause of reduced food intake” value (diet-induced obese mice [2]) was “not by adverse side effects such as sedation or nausea” and the behavioral satiety sequence (diet-induced obese mice [2]; overnight fasted, presented with food) was “dose dependent shift”. The “adiposity (EchoMRI and fad pad weight)” value (diet-induced obese mice [3]) was “dose dependent attenuation”, the body weights (diet-induced obese mice [3]) was “dose dependent attenuation” and the food intake (diet-induced obese mice [3]) was “dose dependent attenuation”.
With `O=c1ccn([C@@H]2O[C@H](COP(=O)(O)OP(=O)(O)O)[C@@H](O)[C@H]2O)c(=O)[nH]1` [UDP, uridine 5′-diphosphate] the “TCPTP protein levels (immunohistochemistry)” value [4] was “Neither ghrelin nor UDP overtly altered”.
`CC#C[C@]1(O)CC[C@H]2[C@@H]3CCC4=CC(=O)CCC4=C3[C@@H](c3ccc(N(C)C)cc3)C[C@@]21C` [RU486, 17-beta-hydroxy-11-beta-(4-dimethyl-aminophenyl)-17-alpha(1-propynyl)-estra-4,9-dien-3-one] was tested, and the adverse behaviours (diet-induced obese mice [5]) was “not accompanied by adverse behaviours such as inactivity, hyperactivity or sedation”.
With `C[N+]1([O-])CCN(C2=Nc3cc(Cl)ccc3Nc3ccccc32)CC1` [CNO, clozapine-N-oxide] the body weights [6] was “decreased”, the food intake [6] was “decreased” and the WAT browning ([6]; sham-operated vs 6-OHDA denervated inguinal fat pads) was “marked WAT browning in the sham-operated, but not in the contralateral 6-OHDA denervated inguinal fat pads”.
In the case of `CC(C)C[C@@H](C=O)NC(=O)[C@H](CC(C)C)NC(=O)[C@H](CC(C)C)NC(=O)OCc1ccccc1` [MG132] (Cbz-Leu-Leu-Leu-aldehyde), the “feeding-induced degradation of TCPTP” value (TCPTP protein in the MBH) is reported as “completely prevented” and the PTP1B levels (PTP1B levels) is reported as “without affecting”.
In the case of ghrelin, the “TCPTP protein levels (immunohistochemistry)” value [4] is reported as “Neither ghrelin nor UDP overtly altered” and the “increase in Ptpn2 message” value ([4]; ICV twice over 4 h in re-fed mice, real time PCR) is reported as roughly 3 fold.
For `CCc1ccc(C(=O)NCCCCC(NC(=O)C(Cc2ccc(C(F)(F)P(=O)(O)O)cc2)NC(=O)C(Cc2ccccc2)NC(=O)COC2CC(C)CCC2C(C)C)C(N)=O)cc1` (stereo not drawn) [compound 8], the “diet-induced weight loss (daily body weight)” value [7] was “enhances diet-induced weight loss”.
For insulin: human insulin (SIGMA), the “ARC p-AKT in response to insulin” value ([8]; 24 h fasted C57BL6 mice) was “only modestly increased” and the “induction of ARC p-AKT in response to insulin” value ([8]; fed C57BL6 mice) was 3-4 fold.
